Experimental data: patent US8252846B2, “Strategies for delivery of active agents using micelles and particles” (priority 2005, dated 2012)

What was measured:
serum nucleases = experiment: Protection of ISS-DNA from serum nucleases (gel electrophoresis); assay type: in vitro ADME; conditions: 10% serum, 12 hours
Method: The stimuli responsive release of peptides from the PCMs due to the presence of GSH was investigated to determine if the PCMs will release peptide antigens after phagocytosis. The PCMs were incubated with different concentrations of GSH, for 24 hours in 50 mM pH 7.4 PBS buffer, and then analyzed by HPLC to determine the release of peptides. […] Incubation of the PCMs with 10 mM GSH (intracellular levels) induces the release of 71% of peptide, whereas incubation of the PCMs with just buffer causes the release of only 10% of peptides. B. GSH sensitive DNA release. The ability of the PCMs to protect encapsulated ISS-DNA from degradation by serum nucleases was investigated. PCMs were synthesized (as described above) and incubated with 10% serum for 12 hours, these PCMs were then examined by gel electrophoresis to determine the stability of the encapsulated ISS-DNA. As a control, ISS-DNA by itself was incubated with serum. […] C. […] A key advantage of the PCM strategy is that it generates a crosslinked delivery system. This crosslinking should stabilize the PCMs in vivo. The stability of the PCMs to decomposition was investigated by mixing the negatively charged polymer, poly(vinyl sulfate) (PVS) with the PCMs, this mixture was then analyzed by gel electrophoresis to determine the quantity of ISS-DNA displaced by the PVS. […]

[1] = cited from earlier work
[2] = Hydrolysis of polyketal copolymers in buffered water (1H NMR); assay type: physicochemical; conditions: buffer
Method: The molecular weight of the polyketal copolymers was determined by gel permeation chromatography (GPC) using a Shimadzu system (Kyoto, Japan) equipped with a UV detector. THF was used as the mobile phase at a flow rate of 1 mL/min. Polystyrene standards (Peak Mw=1060, 2970, and 10680) from Polymer Laboratories (Amherst, Mass.) were used to establish a molecular weight calibration curve. The hydrolysis of the polyketal copolymers was measured in buffered water at pH values of 1.0 (0.1M HCL), 4.5 (100 mM AcOH) and 7.4 (100 mM) at 37° C. Briefly, 20 mg of the polymer samples were placed in a 5 ml vial, 1 mL of buffer solution was added to each vial, and mixed with a magnetic stir bar. At specific time points, 1 mL of CDCl3 was added to each vial and shaken vigorously, the CDCl3 phase was isolated and analyzed by ^1H NMR, to determine the percent hydrolysis the of ketal linkages in polyketal copolymer.

| Molecule | Log P of diol [1] | Estimated half life at pH 7.4 ([2]; pH 7.4) [days] | Half life at pH 4.5 [2] [days] | other results |
| --- | --- | --- | --- | --- |
| 5-TCCATGACGTTCCTGACGTT-3 [ISS-DNA] | – | – | – | Stability of ISS-DNA to serum nucleases (serum nucleases): completely hydrolyzed |
| OCC1CCC(CO)CC1 (stereo not drawn) [1,4-cyclohexanedimethanol] | 1.46 | – | – | – |
| OCCCCCCCCO [1,8-octanediol] | 1.75 | – | – | – |
| poly(cyclohexane-1,4-diyl acetone dimethylene ketal-co-1,5-pentane-acetone dimethylene ketal [PK3] | – | 39 | – | Hydrolysis half life at pH 7.4 (in words) ([2]; pH 7.4): several weeks |
| poly(cyclohexane-1,4-diyl acetone dimethylene ketal-co-1,6-hexane-acetone dimethylene ketal) [PK5] | – | 53 | 4.4 | – |
| poly(cyclohexane-1,4-diyl acetone dimethylene ketal-co-1,8-octane-acetone dimethylene ketal) [PK6] | – | 360 | 18.6 | – |
